Where two headings read alike, the source gives them in different places.
Tests used:
Format in all cases: cell-based
[1] = test system: Huh-7 cells harboring replicon 1B; test: Cytotoxicity in replicon 1B cells; conditions: HCV subtype 1B replicon
Method: (§1) Compounds were also tested in Huh-7 cells harboring sub-genomic reporter replicons derived from HCV subtypes 1B and 2A (ref.: Stuyver, L. J.; Whitaker, T.; McBrayer, T. R.; Hernandez-Santiago, B. I.; Lostia, S.; Tharnish, P. M.; Ramesh, M.; Chu, C. K.; Jordan, R.; Shi, J. X.; Rachakonda, S.; Watanabe, K. A.; Otto, M. J.; Schinazi, R. F. Antimicrob. Agents Chemother. 2003, 47, 244-254).

[2] = test system: MRC-5; test: Cytostatic/cytotoxic MTT assay, MRC-5 fibroblasts; conditions: Homo sapiens, read-out: MTT, IC50 MRC-5
Procedure, shortened: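 IC50 values reflect the drug concentration halving cell growth in a 72 h MTT assay. Readings were taken at 540 nm after SDS lysis, using duplicate four-fold dilution series on cells plated a day earlier.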

[3] = test system: K562; test: Cytostatic/cytotoxic MTT assay, K562; conditions: Homo sapiens, read-out: MTT, IC50 K562
Procedure, shortened: (§2)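 Optical density at 540 nm of SDS-dissolved formazan gives the read-out, with IC50 derived from dose-response curves. Cells (25,000-30,000/well) are treated for 72 h at 37 °C with four-fold compound dilutions, tested in duplicate, then stained with MTT for 1-4 h.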

[4] = test system: HCT116p53-/-; test: Cytostatic/cytotoxic MTT assay, HCT116p53-/-; conditions: Homo sapiens, read-out: MTT, IC50 HCT116 p53-/-
Procedure, shortened: (§3)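 Human cancer lines, including daunorubicin-resistant CEM-DNR (mrp-1/mdr-1 overexpressing) and paclitaxel-resistant K562-TAX (mdr-1), seeded 25,000-30,000 cells/well, pre-incubated 24 h, then treated in duplicate with four-fold dilutions for 72 h at 37° C, 5% CO2. MTT read-out at 540 nm; IC50 from dose-response curves.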

[5] = test system: Huh-7 cells harboring replicon 2A; test: Cytotoxicity in replicon 2A cells; conditions: HCV subtype 2A replicon
Method: as §1

[6] = test system: HCV subtype 1B replicon in Huh-7 cells; test: HCV sub-genomic reporter replicon assay, subtype 1B; conditions: Hepatitis C virus
Method: as §1

[7] = test system: A549; test: Cytostatic/cytotoxic MTT assay, A549; conditions: Homo sapiens, read-out: MTT, IC50 A549
Procedure, shortened: as §2

[8] = test system: CCRF-CEM; test: Cytostatic/cytotoxic MTT assay, CCRF-CEM; conditions: Homo sapiens, read-out: MTT, IC50 CCRF-CEM
Procedure, shortened: as §2

[9] = test system: HCV subtype 2A replicon in Huh-7 cells; test: HCV sub-genomic reporter replicon assay, subtype 2A; conditions: Hepatitis C virus
Method: as §1

[10] = test system: K562-TAX; test: Cytostatic/cytotoxic MTT assay, K562-TAX; conditions: Homo sapiens, 72 h, read-out: MTT, IC50 K562-TAX
Procedure, shortened: as §3

[11] = test system: CEM-DNR-bulk; test: Cytostatic/cytotoxic MTT assay, CEM-DNR-bulk; conditions: Homo sapiens, 72 h, read-out: MTT, IC50 CEM-DNR-bulk
Procedure, shortened: as §3

[12] = MRC5, non-malignant fibroblasts, 72 h
[13] = Huh-7 cells, HCV subtype 1B replicon, read-out: Replicon 1B EC50
[14] = Huh-7 cells, HCV subtype 2A replicon, read-out: Replicon 2A EC50

Row | Compound | CC50 [1] | IC50 [2, 12] | IC50 ([3]; K562, 72 h incubation) | IC50 ([4]; HCT-116, 72 h incubation) | CC50 [5] | EC50 [6, 13] | IC50 ([7]; A549, 72 h incubation) | IC50 ([8]; 72 h incubation) | EC50 [9, 14] | IC50 ([10]; paclitaxel resistant subline) | IC50 ([11]; daunorubicin resistant subline) | IC50 ([2]; MRC5, 72 h) | IC50 ([3]; K562, 72 h) | IC50 ([4]; HCT-116, 72 h) | EC50 ([6]; Huh-7, read-out: Replicon 1B EC50) | IC50 ([7]; A549, 72 h) | IC50 ([8]; 72 h) | EC50 ([9]; Huh-7, read-out: Replicon 2A EC50) | IC50 [10] | IC50 [11]
1 | COc1ncnc2c1c(-c1ccco1)cn2[C@@H]1O[C@H](CO)[C@@H](O)[C@H]1O [Compound 1a, 5-(Furan-2-yl)-4-methoxy-7-(β-D-ribofuranosyl)-7H-pyrrolo[2,3-d]pyrimidine] | > 44 µM | 1.7 µM | 0.06 µM | 0.04 µM | > 44 µM | 0.02 µM | 0.03 µM | 0.02 µM | 0.03 µM | 0.38 µM | 0.16 µM | – | – | – | – | – | – | – | – | –
2 | CNc1ncnc2c1c(-c1ccoc1)cn2[C@@H]1O[C@H](CO)[C@@H](O)[C@H]1O [Compound 3b, 5-(Furan-3-yl)-4-methylamino-7-(β-D-ribofuranosyl)-7H-pyrrolo[2,3-d]pyrimidine] | > 44 µM | > 100 µM | > 20 µM | > 20 µM | > 44 µM | 35.9 µM | > 20 µM | > 20 µM | > 44 µM | > 20 µM | > 20 µM | – | – | – | – | – | – | – | – | –
3 | CNc1ncnc2c1c(-c1ccccc1)cn2[C@@H]1O[C@H](CO)[C@@H](O)[C@H]1O [Compound 3e, 4-Methylamino-5-phenyl-7-(β-D-ribofuranosyl)-7H-pyrrolo[2,3-d]pyrimidine] | > 44 µM | > 100 µM | > 20 µM | > 100 µM | > 44 µM | > 44 µM | > 20 µM | > 20 µM | > 44 µM | > 20 µM | > 20 µM | – | – | – | – | – | – | – | – | –
4 | CNc1ncnc2c1c(-c1ccsc1)cn2[C@@H]1O[C@H](CO)[C@@H](O)[C@H]1O [Compound 3d, 4-Methylamino-7-(β-D-ribofuranosyl)-5-(thiophen-3-yl)-7H-pyrrolo[2,3-d]pyrimidine] | > 44 µM | > 100 µM | > 20 µM | > 20 µM | > 44 µM | > 44 µM | > 20 µM | > 20 µM | > 44 µM | > 20 µM | > 20 µM | – | – | – | – | – | – | – | – | –
5 | Cc1ncnc2c1c(-c1cccs1)cn2[C@@H]1O[C@H](CO)[C@@H](O)[C@H]1O [Compound 5c, 4-Methyl-7-(β-D-ribofuranosyl)-5-(thiophen-2-yl)-7H-pyrrolo[2,3-d]pyrimidine] | > 44 µM | > 100 µM | > 20 µM | > 20 µM | > 44 µM | 6.67 µM | > 20 µM | > 20 µM | > 44 µM | > 20 µM | > 20 µM | – | – | – | – | – | – | – | – | –
6 | Cc1ncnc2c1c(-c1ccsc1)cn2[C@@H]1O[C@H](CO)[C@@H](O)[C@H]1O [Compound 5d, 4-Methyl-7-(β-D-ribofuranosyl)-5-(thiophen-3-yl)-7H-pyrrolo[2,3-d]pyrimidine] | > 44 µM | > 100 µM | 0.32 µM | 1.43 µM | > 44 µM | 4.47 µM | > 20 µM | 11.2 µM | > 44 µM | 5.55 µM | 8.56 µM | – | – | – | – | – | – | – | – | –
7 | CSc1ncnc2c1ccn2[C@@H]1O[C@H](CO)[C@@H](O)[C@H]1O [RC2, reference compound] | > 44 µM | – | – | – | > 44 µM | – | – | – | – | – | – | > 100 µM | > 20 µM | > 20 µM | 29.9 µM | > 20 µM | > 20 µM | > 44 µM | 0.1 µM | 3.61 µM
8 | COc1ncnc2c1ccn2[C@@H]1O[C@H](CO)[C@@H](O)[C@H]1O [RC1, reference compound] | > 44 µM | > 100 µM | > 20 µM | > 20 µM | > 44 µM | 43.2 µM | > 20 µM | > 20 µM | > 44 µM | > 20 µM | > 20 µM | – | – | – | – | – | – | – | – | –
9 | CSc1ncnc2c1c(-c1cccs1)cn2[C@@H]1O[C@H](CO)[C@@H](O)[C@H]1O [Compound 2c, 4-Methylsulfanyl-7-(β-D-ribofuranosyl)-5-(thiophen-2-yl)-7H-pyrrolo[2,3-d]pyrimidine] | > 44 µM | > 100 µM | 11.6 µM | > 20 µM | > 44 µM | 5.42 µM | > 20 µM | > 20 µM | > 44 µM | > 20 µM | > 20 µM | – | – | – | – | – | – | – | – | –
10 | CSc1ncnc2c1c(-c1ccoc1)cn2[C@@H]1O[C@H](CO)[C@@H](O)[C@H]1O [Compound 2b, 5-(Furan-3-yl)-4-methylsulfanyl-7-(β-D-ribofuranosyl)-7H-pyrrolo[2,3-d]pyrimidine] | > 44 µM | > 100 µM | 0.06 µM | 0.1 µM | > 44 µM | 4.72 µM | 0.28 µM | 14.2 µM | > 44 µM | 3.25 µM | > 20 µM | – | – | – | – | – | – | – | – | –
11 | Cc1ncnc2c1c(-c1ccoc1)cn2[C@@H]1O[C@H](CO)[C@@H](O)[C@H]1O [Compound 5b, 5-(Furan-3-yl)-4-methyl-7-(β-D-ribofuranosyl)-7H-pyrrolo[2,3-d]pyrimidine] | > 44 µM | 98.3 µM | > 20 µM | > 20 µM | > 44 µM | 4.43 µM | > 20 µM | > 20 µM | > 44 µM | > 20 µM | > 20 µM | – | – | – | – | – | – | – | – | –
12 | CSc1ncnc2c1c(-c1cc3ccccc3o1)cn2[C@@H]1O[C@H](CO)[C@@H](O)[C@H]1O [Compound 2f, 5-(Benzofuran-2-yl)-4-methylsulfanyl-7-(β-D-ribofuranosyl)-7H-pyrrolo[2,3-d]pyrimidine] | > 44 µM | 70.8 µM | 17.2 µM | > 20 µM | > 44 µM | 8.03 µM | > 20 µM | > 20 µM | 29.6 µM | > 20 µM | > 20 µM | – | – | – | – | – | – | – | – | –
13 | C#Cc1cn([C@@H]2O[C@H](CO)[C@@H](O)[C@H]2O)c2ncnc(NC)c12 [Compound 3g, 5-Ethynyl-4-methylamino-7-(β-D-ribofuranosyl)-7H-pyrrolo[2,3-d]pyrimidine] | > 44 µM | > 100 µM | > 20 µM | > 20 µM | > 44 µM | 0.35 µM | > 20 µM | > 20 µM | > 44 µM | 1.38 µM | 18.5 µM | – | – | – | – | – | – | – | – | –
14 | CSc1ncnc2c1c(-c1ccccc1)cn2[C@@H]1O[C@H](CO)[C@@H](O)[C@H]1O [Compound 2e, 4-Methylsulfanyl-5-phenyl-7-(β-D-ribofuranosyl)-7H-pyrrolo[2,3-d]pyrimidine] | > 44 µM | > 100 µM | > 20 µM | > 20 µM | > 44 µM | 23.3 µM | > 20 µM | > 20 µM | > 44 µM | > 20 µM | > 20 µM | – | – | – | – | – | – | – | – | –
15 | C#Cc1cn([C@@H]2O[C@H](CO)[C@@H](O)[C@H]2O)c2ncnc(C)c12 [Compound 5g, 5-Ethynyl-4-methyl-7-(β-D-ribofuranosyl)-7H-pyrrolo[2,3-d]pyrimidine] | > 44 µM | 1.44 µM | 6.92 µM | > 20 µM | > 44 µM | 0.23 µM | 19.2 µM | 5.6 µM | 21.6 µM | 0.11 µM | 0.16 µM | – | – | – | – | – | – | – | – | –

Source: patent US9586986B2, “Substituted 7-deazapurine ribonucleosides for therapeutic uses” (Institute of Organic Chemistry and Biochemistry ASCR, v.v.i., priority 2014, dated 2017)
